US20200339544A1 (JOINT STOCK COMPANY "BIOCAD", priority 2017, published 2020)
Read-outs that look alike come from different tables or passages of the source. Marks after values point to notes of the source that are not given here.

Key:
[1] = General cytotoxicity on HepG2 cells; assay type: cell-based; conditions: human; general cytotoxicity, HepG2 cells, 72 hours, average of several tests
Summary of the method: (§1)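 HepG2 cells seeded at 2*10^4 cells per well and compounds added in DMEM with 2% FBS for 72 h at 37 °C. Viability read with Alamar Blue and CC50 derived as for IC50. Therapeutic index taken as HepG2 CC50 over H1975 IC50.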

HepG2 cells = assay: General cytotoxicity on HepG2 cells; assay type: cell-based; conditions: therapeutic index, CC50 HepG2 / IC50 H1975
Summary of the method: as §1

[2] = test system: HCC827 (lung adenocarcinoma, SM, exon19delE746-A750); assay: Antiproliferative activity on HCC827 cells (Alamar Blue); assay type: cell-based; conditions: Homo sapiens, antiproliferative test
Description: Antiproliferative activity of EGFR inhibitors (Tables 15 and 16) was measured in cell-based bioassay on continuous epithelial cell cultures: A549 (lung adenocarcinoma, ATCC® CRM-CCL-185™—WT), HCC827 (lung adenocarcinoma, ATCC® CRL-2868™—SM (SingleMutantEGFR, exon19delE746-A750)) and H1975 (lung adenocarcinoma, ATCC® CRL-5908™—DM (DoubleMutantEGFR, L828R/T790M)) using cell viability reagent Alamar Blue (ThermoFisher, # DAL1100). Cells were cultured in 10% FBS-supplemented (Gibco, #16140071) RPMI-1640 (PanEco, S330p) for at least 1 passage after thawing, washed with PBS and passaged in 96-well culture plates (3599, Corning) with RPMI-1640 growth medium supplemented with 2% FBS in an amount of 5*10^3 cells/well for A549, 10*10^3 cells/well for HCC827 and 15*10^3 cells/well for H1975 in 100 μL, and incubated at 37° C. in an incubator (Thermo Forma, USA) under 5% of CO2 for 16-18 h for cell attachment.
The test compounds were dissolved in DMSO in the selected range of concentrations and transferred to RPMI-1640 medium (PanEco, S330p) supplemented with 2% FBS. After adding 50 μl of the prepared dilutions to the cells, the incubation mixture contained the final concentrations of the test substances and no more than 1% DMSO. The plates were Incubated at 37° C. for 72 h. After incubation, 15 μl of Alamar Blue vital dye (ThermoFisher, # DAL1100) was added to each well. The plates were shaken on an orbital shaker (Biosan, Latvia) and further incubated for 3-5 h in a CO2 incubator (Thermo Forma, USA). Number of living cells was estimated using a plate spectrophotometer Infinite M200Pro, (Tecan, Switzerland) measuring fluorescent signal at the excitation wavelength (λEx) of 540 nm and emission wavelength (λEm) of 590 nm.
IC50 was calculated using Magellan 7.2 software (Tecan, Switzerland) approximating experimental points by four-parameter logistic model with the optimization by Levenberg-Marquardt.

WT EGFR (Wild-Type EGFR) = molecular target: T1, WT EGFR (Wild-Type EGFR) (Homo sapiens, UniProt P00533); assay: Inhibition of WT EGFR kinase activity (ADP-Glo); assay type: biochemical
T1 construct: purchased SignalChem
Summary of the method: (§2)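 Recombinant WT or double-mutant EGFR was incubated with a solution of 0.5 mg/mL peptide substrate and 50 μM ATP for 180 minutes at 37° C. Kinase activity was detected by ADP-Glo luminescence. IC50 values came from a four-parameter logistic fit.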

[3] = test system: H1975 (lung adenocarcinoma, DM, L828R/T790M); assay: Antiproliferative activity on H1975 cells (Alamar Blue); assay type: cell-based; conditions: for IC50: Homo sapiens, NCI-H1975, H1975 cells; for SI IC50(A549)/IC50(DM): selectivity index, A549 vs H1975 cells
Summary of the method: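 H1975 cells (15*10^3/well) attached 16-18 h in RPMI-1640 with 2% FBS, then exposed to compounds (≤1% DMSO final) for 72 h at 37 °C. Viability by Alamar Blue fluorescence (Ex 540/Em 590 nm) after 3-5 h; IC50 from four-parameter logistic fit.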

[4] = Chemical stability in simulated intestinal fluid (SIF); assay type: physicochemical; conditions: SIF without enzymes, pH 6.5; 10 μm; 2 hours at 37° C.; substance amount remaining
Description: (§3) 1) Determination of chemical stability in simulated intestinal fluid, simulated gastric fluid and human blood plasma.
(§4) SGF concentrate without enzymes, pH=1,4 (Sigma Ireland, cat #01651) was used as simulated gastric fluid. Initial candidate solution (10 mM in DMSO) was diluted with a SGF working solution to a concentration of 10 μm (test solution). The test solution was incubated in a dry block thermostat for 2 hours at 37° C. SIF concentrate without enzymes, pH=6.5 (Sigma Ireland, cat #55331) was used as simulated intestinal fluid. Initial candidate solution (10 mM in DMSO) was diluted with a SIF working solution to a concentration of 10 μm (test solution). The test solution was incubated in a dry block thermostat for 2 hours at 37° C. HPLC with Agilent 1200 liquid chromatography system (Agilent, USA) was employed to determine peak areas of the compounds in test samples, said peak areas corresponding to the initial test time (prior to incubation) and the final test time (after incubation in a dry block thermostat for 2 hours at 37° C.). We used gradient elution (1 mL/min flow rate). Substance amount in % in a sample after thermostatting was determined.
(§5) The stability of the compounds was estimated.

[5] = test system: A549 (lung adenocarcinoma, WT); assay: Antiproliferative activity on A549 cells (Alamar Blue); assay type: cell-based; conditions: Homo sapiens, antiproliferative test
Summary of the method: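 Cells seeded at 5*10^3/well in RPMI-1640 with 2% FBS, attached 16-18 h at 37° C, then exposed to compounds (≤1% DMSO) for 72 h. Alamar Blue added for 3-5 h; fluorescence read at 540/590 nm. IC50 from four-parameter logistic fit.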

[6] = molecular target: T2, DM EGFR (DoubleMutantEGFR, L828R/T790M) (Homo sapiens, UniProt P00533, L858R/T790M); assay: Inhibition of DM EGFR kinase activity (ADP-Glo); assay type: biochemical; conditions: for IC50: inhibition of kinase activity, EGFR DM (L828R/T790M); for SI, IC50(WT)/IC50(DM): selectivity index, kinase EGFR WT vs EGFR DM
T2 construct: purchased SignalChem
Summary of the method: as §2

[7] = Chemical stability in simulated gastric fluid (SGF); assay type: physicochemical; conditions: SGF without enzymes, pH 1,4; 10 μm; 2 hours at 37° C.; substance amount remaining
Description: as §3, §4, §5

[8] = Chemical stability in human blood plasma; assay type: in vitro ADME; conditions: pooled human blood plasma; 10 μm; 4 hours at 37° C.; substance amount remaining
Summary of the method: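 Pooled plasma from ten healthy donors was spiked to 10 μM from a 10 mM DMSO stock and held 4 h at 37 °C. After acetonitrile protein precipitation, HPLC peak areas before and after incubation gave the percentage of compound remaining.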

[9] = Enzyme stability in human liver S9 fractions; assay type: in vitro ADME; conditions: 0.5 mg/mL pooled human liver S9 fractions; 10 μM compound; 37° C.; pH 7.4; read-out: Stability in liver S9 fractions, Clint
Summary of the method: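 Compound at 10 μM was incubated at 37 °C with 0.5 mg/mL pooled human liver S9, 2 mM β-NAD and 4 mM MgCl2 in 0.1 M sodium phosphate, pH 7.4, then quenched with acetonitrile and analysed chromatographically. T½ and CLint were derived from the slope of log peak area versus time.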

[10] = average values obtained in several tests, Table 16, read-out: H1975 (DM) IC50
[11] = antiproliferative test, Table 15, read-out: IC50 H1975 (DM)

IC50 [2] [µM]	IC50 (WT EGFR (Wild-Type EGFR)) [µM]	IC50 [3, 10] [µM]	IC50 [3, 11] [µM]	Stability in SIF, % [4] [%]	IC50 [5] [µM]	IC50 [6] [µM]	SI, IC50(WT)/IC50(DM) [6]	Stability in SGF, % [7] [%]	Stability in blood plasma, % [8] [%]	Intrinsic clearance in human liver S9 fractions at 10 µM [9] [µL/min/mg]	Structure (SMILES)	CC50 at 72 h [1] [µM]	TI, CC50/IC50 (HepG2 cells)	SI IC50(A549)/IC50(DM) [3]
0.0059	0.0758	0.0056	0.0056	96.8	> 10	0.00679	11.16	99.5	60.5	–	C=CC(=O)Nc1cc(Nc2nccc(C(=O)c3ccccc3OC)n2)c(OC)cc1N(C)CCN(C)C [EGFR_3365_33, N-(2-((2-(dimethylamino)ethyl)(methyl)amino)-4-methoxy-5-((4-(2-methoxybenzoyl)pyrimidin-2-yl)amino)phenyl)acrylamide]	57.6	10285	>1786**
0.0103	0.113	0.0308	0.0308	100.0	4.48	0.0181	6.22	98.9	82.4	–	C=CC(=O)Nc1cc(Nc2nccc(C(=O)c3ccc(Br)cc3)n2)c(OC)cc1N(C)CCN(C)C [EGFR_3365_13, N-(5-((4-(4-bromobenzoyl)pyrimidin-2-yl)amino)-2-((2-(dimethylamino)ethyl) (methyl)amino)-4-methoxyphenyl)acrylamide]	14.1	460	145.63
0.0111	0.202	0.0934	0.0934	99.7	35.1	0.00526	38.41	98.0	67.5	–	C=CC(=O)Nc1cc(Nc2nccc(C(=O)c3cccc(OC)c3)n2)c(OC)cc1N(C)CCN(C)C [EGFR_3365_32, N-(2-((2-(dimethylamino)ethyl)(methyl)amino)-4-methoxy-5-((4-(3-methoxybenzoyl)pyrimidin-2-yl)amino)phenyl)acrylamide]	24.8	265	376.12
–	–	–	–	100.0	–	–	–	100.0	87.2	16.6	C=CC(=O)Nc1cc(Nc2nccc(C(=O)c3ccc(C)cc3)n2)c(OC)cc1N(C)CCN(C)C [EGFR_3365_64, N-(2-((2-(dimethylamino)ethyl)(methyl)amino)-4-methoxy-5-((4-(4-methylbenzoyl)pyrimidin-2-yl)amino)phenyl)acrylamide]	–	–	–
–	–	–	–	100.0	–	–	–	100.0	100.0	–	C=CC(=O)Nc1cc(Nc2nccc(C(=O)c3ccc(OC(C)C)cc3OC(C)C)n2)c(OC)cc1N(C)CCN(C)C [EGFR_3365_71, N-(5-((4-(2,4-diisopropoxybenzoyl)pyrimidin-2-yl)amino)-2-((2-(dimethylamino)ethyl)(methyl)amino)-4-methoxyphenyl)acrylamide]	–	–	–
–	0.36	0.184	0.184	100.0	73.9	0.0189	19.05	100.0	98.5	–	C=CC(=O)Nc1cc(Nc2nccc(C(=O)c3ccccc3[N+](=O)[O-])n2)c(OC)cc1N(C)CCN(C)C [EGFR_3365_36, N-(2-((2-(dimethylamino)ethyl)(methyl)amino)-4-methoxy-5-((4-(2-nitrobenzoyl)pyrimidin-2-yl)amino)phenyl)acrylamide]	36.5	199	402.37
–	–	–	–	99.4	–	–	–	99.7	100.0	–	C=CC(=O)Nc1cc(Nc2nccc(C(=O)c3ccc(-n4ccnc4)cc3)n2)c(OC)cc1N(C)CCN(C)C [EGFR_3365_86, N-(5-((4-(4-(1H-imidazol-1-yl)benzoyl)pyrimidin-2-yl)amino)-2-((2-(dimethylamino)ethyl) (methyl)amino)-4-methoxyphenyl)acrylamide]	–	–	–
0.0286	0.464	0.0573	0.0573	89.8	7.59	0.022	21.03	100.0	–	–	C=CC(=O)Nc1cc(Nc2cc(C(=O)c3ccc(N4CCOCC4)cc3)ccn2)c(OC)cc1N(C)CCN(C)C.O=C(O)C(F)(F)F [EGFR_3365_5, N-(2-((2-(dimethylamino)ethyl)(methyl)amino)-4-methoxy-5-((4-(4-morpholinobenzoyl)pyridin-2-yl)amino)phenyl)acrylamide 2,2,2-trifluoroacetate]	17.7	309	132.56
0.00564	0.0497	0.0694	0.0694	96.6	8.64	0.00624	7.96	100.0	–	–	C=CC(=O)Nc1cc(Nc2cc(C(=O)c3ccc(C)cc3)ccn2)c(OC)cc1N(C)CCN(C)C [EGFR_3365_57, N-(2-((2-(dimethylamino)ethyl)(methyl)amino)-4-methoxy-5-((4-(4-methylbenzoyl)pyridin-2-yl)amino)phenyl)acrylamide]	22.8	328	124
